Experimental data: PubChem BioAssay (NCI)
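Each compound was tested at five concentrations against cells in 96-well plates for 48 hours. TGI is the concentration that stops growth completely.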

Key:
Experiment in all cases: NCI tumour cell line growth inhibition, 48 h
[1] = test system: NCI-H460 lung
[2] = test system: RXF 393 renal
[3] = test system: SNB-19 CNS
[4] = test system: HOP-18 NSCLC
[5] = test system: OVCAR-8 ovarian
[6] = test system: RPMI-8226 leukemia
[7] = test system: LOX IMVI melanoma
[8] = test system: K-562 leukemia
[9] = test system: MOLT-4 leukemia
[10] = test system: SW-620 colon
[11] = test system: DLD-1 colon
[12] = test system: UACC-257 melanoma
[13] = test system: SR leukemia
[14] = test system: MALME-3M melanoma
[15] = test system: SK-MEL-28 melanoma
[16] = test system: MDA-N
[17] = test system: HL-60(TB) leukemia
[18] = test system: SF-295 CNS
[19] = test system: DMS 114 small cell lung
[20] = test system: MDA-MB-231 breast
[21] = test system: HCT-15 colon
[22] = test system: DU-145 prostate
[23] = test system: HOP-62 NSCLC
[24] = test system: A549 NSCLC
[25] = test system: HCT-116 colon
[26] = test system: M14 melanoma
[27] = test system: NCI-H23 lung
[28] = test system: TK-10 renal
[29] = test system: HS 578T breast
[30] = test system: 786-0 renal
[31] = test system: COLO 205 colon
[32] = test system: SNB-75 CNS
[33] = test system: HCC-2998 colon
[34] = test system: BT-549 breast
[35] = test system: NCI-H522 lung
[36] = test system: OVCAR-5 ovarian
[37] = test system: A498 renal
[38] = test system: SN12C renal
[39] = test system: SF-539 CNS
[40] = test system: EKVX NSCLC
[41] = test system: SF-268 CNS
[42] = test system: NCI/ADR-RES ovarian
[43] = test system: SK-MEL-5 melanoma
[44] = test system: IGROV1 ovarian
[45] = test system: SK-OV-3 ovarian
[46] = test system: UO-31 renal
[47] = test system: NCI-H226 lung
[48] = test system: UACC-62 melanoma
[49] = test system: PC-3 prostate
[50] = test system: CCRF-CEM leukemia
[51] = test system: OVCAR-4 ovarian
[52] = test system: ACHN renal
[53] = test system: KM12 colon
[54] = test system: MDA-MB-435
[55] = test system: M19-MEL melanoma
[56] = test system: MCF7 breast
[57] = test system: HOP-92 NSCLC
[58] = test system: CAKI-1 renal
[59] = test system: XF 498 CNS
[60] = test system: LXFL 529 NSCLC
[61] = test system: HT29 colon
[62] = test system: U251 CNS
[63] = test system: OVCAR-3 ovarian
[64] = test system: DMS 273 small cell lung
[65] = test system: T-47D breast
[66] = test system: SK-MEL-2 melanoma
[67] = test system: RXF-631 renal
[68] = test system: KM20L2 colon
[69] = test system: SNB-78 CNS

For COc1ccc(N2C(=O)[C@H]3[C@H]4CC(C(C)(C)C)CC[C@H]4c4c(n(C)c5ccccc45)[C@H]3C2=O)cc1 (stereo partly specified), the TGI [1] was > 63.8 µM, the TGI [2] was > 100 µM and the TGI [3] was > 100 µM. The TGI [4] was > 100 µM, the TGI [5] was > 100 µM and the TGI [6] was > 100 µM. For the same compound, the TGI [7] was > 100 µM, the TGI [8] was > 100 µM and the TGI [9] was > 100 µM. The TGI [10] was > 100 µM, the TGI [11] was > 100 µM and the TGI [12] was > 100 µM. The TGI [13] was > 100 µM, the TGI [14] was > 100 µM and the TGI [15] was > 100 µM. The TGI [16] was > 100 µM, the TGI [17] was > 100 µM and the TGI [18] was > 100 µM. For the same compound, the TGI [19] was > 100 µM, the TGI [20] was > 100 µM and the TGI [21] was > 56.2 µM. The TGI [22] was > 100 µM, the TGI [23] was > 5.62 µM and the TGI [24] was > 100 µM. For the same compound, the TGI [25] was > 100 µM, the TGI [26] was > 100 µM and the TGI [27] was > 100 µM. The TGI [28] was > 100 µM, the TGI [29] was > 86 µM and the TGI [30] was > 100 µM. The TGI [31] was > 100 µM, the TGI [32] was > 100 µM and the TGI [33] was > 56.2 µM. For the same compound, the TGI [34] was > 100 µM, the TGI [35] was > 82.4 µM and the TGI [36] was > 100 µM. For the same compound, the TGI [37] was > 46.4 µM, the TGI [38] was > 56.2 µM and the TGI [39] was > 46.4 µM. The TGI [40] was > 46.4 µM, the TGI [41] was > 100 µM and the TGI [42] was > 100 µM. For the same compound, the TGI [43] was > 100 µM, the TGI [44] was > 100 µM and the TGI [45] was > 100 µM. For the same compound, the TGI [46] was > 100 µM, the TGI [47] was > 100 µM and the TGI [48] was > 100 µM. For the same compound, the TGI [49] was > 100 µM, the TGI [50] was > 100 µM and the TGI [51] was > 100 µM. For the same compound, the TGI [52] was > 100 µM, the TGI [53] was > 61.3 µM and the TGI [54] was > 100 µM. The TGI [55] was > 100 µM, the TGI [56] was > 46.4 µM and the TGI [57] was > 100 µM. For the same compound, the TGI [58] was > 100 µM, the TGI [59] was > 100 µM and the TGI [60] was > 100 µM. The TGI [61] was > 100 µM, the TGI [62] was > 56.2 µM and the TGI [63] was > 100 µM. For the same compound, the TGI [64] was > 100 µM, the TGI [65] was > 100 µM and the TGI [66] was > 100 µM.
For O=C1O[C@H](c2ccccc2)[C@@H]2CC3(CCN12)OCCO3, the TGI [1] was > 100 µM, the TGI [2] was > 100 µM and the TGI [3] was > 100 µM. The TGI [67] was > 100 µM, the TGI [5] was > 100 µM and the TGI [6] was > 100 µM. The TGI [7] was > 100 µM, the TGI [8] was > 100 µM and the TGI [9] was > 100 µM. The TGI [10] was > 100 µM, the TGI [12] was > 100 µM and the TGI [13] was > 100 µM. For the same compound, the TGI [15] was > 100 µM, the TGI [17] was > 100 µM and the TGI [18] was > 100 µM. The TGI [21] was > 100 µM, the TGI [23] was > 100 µM and the TGI [24] was > 100 µM. The TGI [25] was > 100 µM, the TGI [26] was > 100 µM and the TGI [27] was > 100 µM. For the same compound, the TGI [28] was > 100 µM, the TGI [30] was > 100 µM and the TGI [31] was > 100 µM. For the same compound, the TGI [35] was 7.48 µM, the TGI [36] was > 100 µM and the TGI [37] was > 100 µM. The TGI [38] was > 100 µM, the TGI [39] was > 100 µM and the TGI [40] was > 100 µM. For the same compound, the TGI [41] was > 100 µM, the TGI [43] was > 100 µM and the TGI [44] was > 100 µM. The TGI [46] was > 100 µM, the TGI [47] was > 100 µM and the TGI [48] was > 100 µM. The TGI [50] was > 100 µM, the TGI [51] was > 100 µM and the TGI [52] was > 100 µM. For the same compound, the TGI [53] was > 100 µM, the TGI [57] was > 100 µM and the TGI [58] was > 100 µM. For the same compound, the TGI [59] was > 100 µM, the TGI [60] was > 100 µM and the TGI [61] was > 100 µM. The TGI [62] was > 100 µM, the TGI [68] was > 100 µM and the TGI [63] was > 100 µM. The TGI [64] was > 100 µM and the TGI [66] was > 100 µM.
For COC(=O)C1=C(O)c2cc(-c3ccccc3)c(-c3ccccc3)c(C#N)c2NC(=O)C1, the TGI [1] was > 100 µM, the TGI [2] was 9.33 µM and the TGI [3] was > 100 µM. For the same compound, the TGI [67] was 41 µM, the TGI [5] was > 100 µM and the TGI [8] was > 100 µM. For the same compound, the TGI [9] was > 100 µM, the TGI [11] was > 100 µM and the TGI [12] was > 100 µM. The TGI [13] was > 100 µM, the TGI [15] was > 100 µM and the TGI [18] was 42.1 µM. The TGI [19] was > 100 µM, the TGI [21] was > 100 µM and the TGI [23] was 96.8 µM. The TGI [24] was 54.4 µM, the TGI [25] was > 100 µM and the TGI [26] was > 100 µM. For the same compound, the TGI [27] was > 100 µM, the TGI [30] was > 100 µM and the TGI [31] was > 100 µM. For the same compound, the TGI [32] was 93.3 µM, the TGI [33] was > 100 µM and the TGI [37] was > 100 µM. The TGI [38] was > 100 µM, the TGI [39] was > 100 µM and the TGI [40] was > 100 µM. For the same compound, the TGI [69] was > 100 µM, the TGI [44] was 4.74 µM and the TGI [46] was > 100 µM. For the same compound, the TGI [48] was > 100 µM, the TGI [50] was > 100 µM and the TGI [51] was > 100 µM. For the same compound, the TGI [52] was > 100 µM, the TGI [53] was > 100 µM and the TGI [55] was > 100 µM. The TGI [58] was 85.8 µM, the TGI [59] was > 100 µM and the TGI [60] was > 100 µM. The TGI [61] was > 100 µM, the TGI [62] was > 100 µM and the TGI [68] was > 100 µM. The TGI [63] was > 100 µM, the TGI [64] was > 100 µM and the TGI [66] was > 100 µM.
